Columns and labels:
Assay type in all cases: functional
NCI-H460 = test: Growth inhibition of human NCI-H460 cells after 48 hrs by […] growth inhibition assay; settings: NCI-H460, 48 h
SK-MEL-5 [1] = test: Growth inhibition of human SK-MEL-5 cells assessed as cell growth at 0.1 uM after 48 hrs by SRB assay; settings: SK-MEL-5, 48 h, read-out: Activity
CCRF-CEM [2] = test: Growth inhibition of human CCRF-CEM cells assessed as cell growth at 10 uM after 48 hrs by SRB assay; settings: read-out: Activity
OVCAR-3 [3] = test: Growth inhibition of human OVCAR3 cells assessed as cell growth at 1 uM after 48 hrs by SRB assay; settings: OVCAR-3, 48 h, read-out: Activity
OVCAR-5 [4] = test: Growth inhibition of human OVCAR5 cells assessed as cell growth at 1 mM after 48 hrs by SRB assay; settings: OVCAR-5, 48 h, read-out: Activity
SK-MEL-2 [5] = test: Growth inhibition of human SK-MEL-2 cells assessed as cell growth at 100 uM after 48 hrs by SRB assay; settings: SK-MEL-2, 48 h, read-out: Activity
DU-145 = test: Growth inhibition of human DU145 cells after 48 hrs by […] growth inhibition assay; settings: DU-145, 48 h
NCI/ADR-RES [6] = test: Growth inhibition of human NCI/ADR-RES cells after 48 hrs by SRB assay
OVCAR-5 [7] = test: Growth inhibition of human OVCAR5 cells assessed as cell growth at 100 uM after 48 hrs by SRB assay; settings: OVCAR-5, 48 h, read-out: Activity
NCI/ADR-RES [8] = test: Growth inhibition of human NCI/ADR-RES cells assessed as cell growth at 0.1 uM after 48 hrs by SRB assay; settings: read-out: Activity
RXF 393 = test: Growth inhibition of human RXF393 cells assessed as cell growth at 100 uM after 48 hrs by SRB assay; settings: RXF 393, 48 h, read-out: Activity
SF-268 = test: Growth inhibition of human SF268 cells assessed as cell growth at 0.1 uM after 48 hrs by SRB assay; settings: SF-268, 48 h, read-out: Activity
NCI-H226 [9] = test: Growth inhibition of human NCI-H226 cells assessed as cell growth at 100 uM after 48 hrs by SRB assay; settings: NCI-H226, 48 h, read-out: Activity
SK-MEL-5 [10] = test: Growth inhibition of human SK-MEL-5 cells after 48 hrs by […] growth inhibition assay; settings: SK-MEL-5, 48 h
HOP-62 = test: Growth inhibition of human HOP62 cells assessed as cell growth at 1 uM after 48 hrs by SRB assay; settings: HOP-62, 48 h, read-out: Activity
ACHN = test: Growth inhibition of human ACHN cells assessed as cell growth at 0.1 uM after 48 hrs by SRB assay; settings: read-out: Activity
OVCAR-3 [11] = test: Growth inhibition of human OVCAR3 cells assessed as cell growth at 1 mM after 48 hrs by SRB assay; settings: OVCAR-3, 48 h, read-out: Activity
SF-539 = test: Growth inhibition of human SF539 cells assessed as cell growth at 1 uM after 48 hrs by SRB assay; settings: SF-539, 48 h, read-out: Activity
CAKI-1 = test: Growth inhibition of human Caki1 cells assessed as cell growth at 10 uM after 48 hrs by SRB assay; settings: CAKI-1, 48 h, read-out: Activity
NCI-H226 [12] = test: Growth inhibition of human NCI-H226 cells assessed as cell growth at 0.1 uM after 48 hrs by SRB assay; settings: NCI-H226, 48 h, read-out: Activity
SK-MEL-28 = test: Growth inhibition of human SK-MEL-28 cells assessed as cell growth at 10 uM after 48 hrs by SRB assay; settings: SK-MEL-28, 48 h, read-out: Activity
HCT-15 [13] = test: Growth inhibition of human HCT15 cells assessed as cell growth at 1 mM after 48 hrs by SRB assay; settings: HCT-15, 48 h, read-out: Activity
UACC-257 [14] = test: Growth inhibition of human UACC257 cells assessed as cell growth at 10 uM after 48 hrs by SRB assay; settings: UACC-257, 48 h, read-out: Activity
KM12 = test: Growth inhibition of human KM12 cells assessed as cell growth at 1 mM after 48 hrs by SRB assay; settings: KM12, 48 h, read-out: Activity
UACC-257 [15] = test: Growth inhibition of human UACC257 cells assessed as cell growth at 0.1 uM after 48 hrs by SRB assay; settings: UACC-257, 48 h, read-out: Activity
SK-OV-3 = test: Growth inhibition of human SKOV3 cells assessed as cell growth at 1 mM after 48 hrs by SRB assay; settings: SK-OV-3, 48 h, read-out: Activity
MOLT-4 = test: Growth inhibition of human MOLT4 cells assessed as cell growth at 10 uM after 48 hrs by SRB assay; settings: MOLT-4, 48 h, read-out: Activity
HCT-15 [16] = test: Growth inhibition of human HCT15 cells assessed as cell growth at 0.1 uM after 48 hrs by SRB assay; settings: HCT-15, 48 h, read-out: Activity
CCRF-CEM [17] = test: Growth inhibition of human CCRF-CEM cells after 48 hrs by […] growth inhibition assay
HT-29 [18] = test: Growth inhibition of human HT-29 cells assessed as cell growth at 100 uM after 48 hrs by SRB assay; settings: HT-29, 48 h, read-out: Activity
HT-29 [19] = test: Growth inhibition of human HT-29 cells assessed as cell growth at 1 uM after 48 hrs by SRB assay; settings: HT-29, 48 h, read-out: Activity
MCF7 = test: Growth inhibition of human MCF7 cells assessed as cell growth at 1 uM after 48 hrs by SRB assay; settings: MCF7, 48 h, read-out: Activity
TK-10 = test: Growth inhibition of human TK10 cells assessed as cell growth at 1 uM after 48 hrs by SRB assay; settings: TK-10, 48 h, read-out: Activity
SK-MEL-2 [20] = test: Growth inhibition of human SK-MEL-2 cells assessed as cell growth at 1 mM after 48 hrs by SRB assay; settings: SK-MEL-2, 48 h, read-out: Activity
EKVX = test: Growth inhibition of human EKVX cells assessed as cell growth at 1 mM after 48 hrs by SRB assay; settings: read-out: Activity
[21] = read-out: LC50 (the source's name)
[22] = read-out: pLC50 (the source's name) (converted)

CNC(=O)NC[C@H]1O[C@@H](n2cnc3c(NC(=O)Nc4ccccc4)ncnc32)[C@H](O[Si](C)(C)C(C)(C)C)[C@@H]1CC(=O)N(C)OC
GI50 (NCI-H460; read-out: GI50): 7.49 µM
CC50 (NCI-H460; [21]): > 100 µM
TGI (NCI-H460; read-out: TGI): > 100 µM
GI50 (NCI-H460; read-out: pGI50 (converted)): 7.41 µM
CC50 (NCI-H460; [22]): > 100 µM
TGI (NCI-H460; read-out: pTGI (converted)): > 100 µM
growth at 0.1 µM (SK-MEL-5 [1]): 104%
growth at 10 µM (CCRF-CEM [2]): 96%
growth at 1 µM (OVCAR-3 [3]): 107%
growth at 1000 µM (OVCAR-5 [4]): 35%
growth at 100 µM (SK-MEL-2 [5]): 62%
GI50 (DU-145; read-out: GI50): 16.6 µM
CC50 (DU-145; [21]): > 100 µM
TGI (DU-145; read-out: TGI): > 100 µM
GI50 (DU-145; read-out: pGI50 (converted)): 16.6 µM
CC50 (DU-145; [22]): > 100 µM
TGI (DU-145; read-out: pTGI (converted)): > 100 µM
GI50 (NCI/ADR-RES [6]; read-out: GI50): > 100 µM
CC50 (NCI/ADR-RES [6]; [21]): > 100 µM
TGI (NCI/ADR-RES [6]; read-out: TGI): > 100 µM
GI50 (NCI/ADR-RES [6]; read-out: pGI50 (converted)): > 100 µM
CC50 (NCI/ADR-RES [6]; [22]): > 100 µM
TGI (NCI/ADR-RES [6]; read-out: pTGI (converted)): > 100 µM
growth at 100 µM (OVCAR-5 [7]): 71%
growth at 0.1 µM (NCI/ADR-RES [8]): 109%
growth at 100 µM (RXF 393): 49%
growth at 0.1 µM (SF-268): 98%
growth at 100 µM (NCI-H226 [9]): 66%
GI50 (SK-MEL-5 [10]; read-out: GI50): 5.81 µM
CC50 (SK-MEL-5 [10]; [21]): > 100 µM
TGI (SK-MEL-5 [10]; read-out: TGI): > 100 µM
GI50 (SK-MEL-5 [10]; read-out: pGI50 (converted)): 5.75 µM
CC50 (SK-MEL-5 [10]; [22]): > 100 µM
TGI (SK-MEL-5 [10]; read-out: pTGI (converted)): > 100 µM
growth at 1 µM (HOP-62): 88%
growth at 0.1 µM (ACHN): 107%
growth at 1000 µM (OVCAR-3 [11]): 6%
growth at 1 µM (SF-539): 94%
growth at 10 µM (CAKI-1): 76%
growth at 0.1 µM (NCI-H226 [12]): 103%
growth at 10 µM (SK-MEL-28): 101%
growth at 1000 µM (HCT-15 [13]): 37%
growth at 10 µM (UACC-257 [14]): 102%
growth at 1000 µM (KM12): 30%
growth at 0.1 µM (UACC-257 [15]): 95%
growth at 1000 µM (SK-OV-3): 38%
growth at 10 µM (MOLT-4): 78%
growth at 0.1 µM (HCT-15 [16]): 96%
GI50 (CCRF-CEM [17]; read-out: GI50): 6.37 µM
LC50 (lethal concentration, 50% net cell kill) (CCRF-CEM [17]; read-out: LC50): > 100 µM
TGI (CCRF-CEM [17]; read-out: TGI): > 100 µM
GI50 (CCRF-CEM [17]; read-out: pGI50 (converted)): 6.31 µM
LC50 (lethal concentration, 50% net cell kill) (CCRF-CEM [17]; read-out: pLC50 (converted)): > 100 µM
TGI (CCRF-CEM [17]; read-out: pTGI (converted)): > 100 µM
growth at 100 µM (HT-29 [18]): 32%
growth at 1 µM (HT-29 [19]): 107%
growth at 1 µM (MCF7): 95%
growth at 1 µM (TK-10): 106%
growth at 1000 µM (SK-MEL-2 [20]): -5%
growth at 1000 µM (EKVX): 36%

From ChEMBL document CHEMBL1681651, “A broad spectrum anticancer nucleoside with selective toxicity against human colon cells in vitro” (2011)
